Assay results from US6872749B2, “Method for supplying bioavailable methionine to a cow” (Adisseo Ireland Limited, priority 1998, dated 2005).
Where two headings read alike, the source gives them in different places.

Experiments:
[1] = dose of methionine equivalent to 50 g per day per cow; cited from earlier work
in vivo = conditions: bovine
Protocol: The kinetics of availability of methionine and HMB in the bloodstream were determined for the isopropyl ester of the hydroxy analogue of methionine and compared with the hydroxy analogue of methionine (a compound not according to the present invention).
The procedure of Example 2 was repeated wherein samples of the isopropyl ester of the hydroxy analogue (69 g) and the hydroxy analogue (Alimet™-57 g) were given to four cows.

[2] = incubation for six hours in rumen juices; cited from earlier work
[3] = bovine, in vivo
Protocol: Spot doses of the following amounts of the esters prepared as detailed above, equating to 50 g of methionine equivalent, were given to 2 cows in the manner described in Example 2(b1) above. • methyl ester of HMB: 64.8 g • ethyl ester of HMB: 74.8 g • isopropyl ester of HMB: 80.5 g • n-butyl ester of HMB: 96 g • cyclohexyl ester of HMB: 97.5 g • see butyl ester of HMB: 79 g The concentration of methionine and HMB was measured over a period of 27 hours.
56 g of methyl methioninate and 72 g of n-propyl methioninate (providing an equivalent 50 g of DL-methionine), prepared as detailed above, were supplied to two cows as a spot dose at 7.45 am just before the morning feed.
The ration given to the cows was distributed as two equal meals at 08.00 hours and 16.00 hours comprised 7 kg of hay and 2 kg concentrate.
Samples of blood were taken by jugular vein puncture 09.00, 10.00, 11.00, 13.00 and 15.00 hours on the day where the ester was given to the animal and at 09.00, 12.00 and 15.00 hours on the day before and two days after supply.
The plasma from each sample was isolated from the blood samples by centrifuging the blood at 3000 revs per minute for 10 minutes. The samples were stored in a freezer. The assay for methionine was carried out according to the standard procedure of Moore and Stein.
The results were plotted using the conventional AUC method wherein the areas under the curves are calculated to obtain the bioavailability values for each ester.

cows = assay: Milk production of dairy cows given ester supplement (Examples 4 and 6); assay type: in vivo, cow; conditions: for Butter Content of Milk / Daily amount of milk / Protein content of Milk: supplement providing 12.5 g of bioavailable methionine per animal per day, 16 cows; for Effect of addition to the diet on milk composition: versus control, Table 5
Source text: The isopropyl ester of the hydroxy analogue of methionine was given to 16 cows over a period of 8 weeks. Each cow was given daily corn silage and a supplement to cover 100% of requirement and a 115% PDIE (protein digestible in the intestine) requirement.
The supplements were given to the cows according to the following schedule: […]

[4] = Bioavailability of esters of methionine after spot dose to cows (Example 2); assay type: in vivo, cow; conditions: bovine, in vivo
Protocol: The bioavailability of the esters was evaluated.
The samples were stored in a freezer.
The procedure of (b1) was repeated using 72 g of methionine ethyl ester hydrochloride, prepared as detailed above
• cyclohexyl methioninate: 122 g • methionine methyl ester hydrochloride: 73 g • sec butyl methioninate: 72 g

CSCCC(O)C(=O)O (centres unmarked) [HMB, 2-hydroxy-4-(methylthio) butanoic acid]
Bioavailability [1]: 3%
Blood plasma HMB concentration (in vivo; 0 min): 0.00 mg/100 g of plasma
Blood plasma HMB concentration (in vivo; 10 min): 0.00 mg/100 g of plasma
Blood plasma HMB concentration (in vivo; 20 min): 0.00 mg/100 g of plasma
Blood plasma HMB concentration (in vivo; 30 min): 0.00 mg/100 g of plasma
Blood plasma HMB concentration (in vivo; 40 min): 0.00 mg/100 g of plasma
Blood plasma HMB concentration (in vivo; 50 min): 0.00 mg/100 g of plasma
Blood plasma HMB concentration (in vivo; 60 min): 0.00 mg/100 g of plasma
Blood plasma HMB concentration (in vivo; 75 min): 0.00 mg/100 g of plasma
Blood plasma HMB concentration (in vivo; 90 min): 0.00 mg/100 g of plasma
concentration at 0 min (in vivo; Blood plasma HMB concentration): 0 ng/g
concentration at 10 min (in vivo; Blood plasma HMB concentration): 0 ng/g
concentration at 20 min (in vivo; Blood plasma HMB concentration): 0 ng/g
concentration at 30 min (in vivo; Blood plasma HMB concentration): 0 ng/g
concentration at 40 min (in vivo; Blood plasma HMB concentration): 0 ng/g
concentration at 50 min (in vivo; Blood plasma HMB concentration): 0 ng/g
concentration at 60 min (in vivo; Blood plasma HMB concentration): 0 ng/g
concentration at 75 min (in vivo; Blood plasma HMB concentration): 0 ng/g
concentration at 90 min (in vivo; Blood plasma HMB concentration): 0 ng/g
amount remaining after incubation in rumen juices [2]: 85%

CSCCC(O)C(=O)OC(C)C (centres unmarked) [Isopropyl ester of HMB, isopropyl ester of the hydroxy analogue of methionine]
Blood plasma HMB concentration (in vivo): 0.00 mg/100 g of plasma
Speed of providing methionine and HMB to the bloodstream (in vivo): much quicker than HMB itself
Bioavailability [3]: 59%
appearance of the bioavailability peak in the blood following administration [3]: relatively quickly
bioavailability of methionine [3]: more than 50%
methionine equivalent provided to the bloodstream by absorption across the rumen wall [3]: at least 50%
Butter Content of Milk (cows): 44.3 g/kg
Daily amount of milk (cows): 32.3 kg/cow
Protein content of Milk (cows): 30.8 g/kg
Effect of addition to the diet on milk composition (cows): higher fat content and higher protein content

CSCC[C@H](N)C(=O)OC(C)C [Isopropyl methioninate, isopropyl methioninate]
Butter Content of Milk (cows): 43.3 g/kg
Daily amount of milk (cows): 32.7 kg/cow
Protein content of Milk (cows): 30.6 g/kg
Effect of addition to the diet on milk composition (cows): higher fat content and higher protein content
[met] methionine concentration in blood plasma ([4]; 0 h): 0.33 mg/100 g of blood plasma
[met] methionine concentration in blood plasma ([4]; 1 h): 3.62 mg/100 g of blood plasma
[met] methionine concentration in blood plasma ([4]; 2 h): 3.21 mg/100 g of blood plasma
[met] methionine concentration in blood plasma ([4]; 3 h): 2.86 mg/100 g of blood plasma
[met] methionine concentration in blood plasma ([4]; 5 h): 2.22 mg/100 g of blood plasma
[met] methionine concentration in blood plasma ([4]; 7 h): 1.93 mg/100 g of blood plasma
[met] methionine concentration in blood plasma ([4]; 28 h): 0.35 mg/100 g of blood plasma
Bioavailability % ([4]; po): 44%

COC(=O)C(O)CCSC (centres unmarked) [Methyl ester of HMB, methyl ester of HMB]
amount remaining after incubation in rumen juices [2]: 1.8%
Bioavailability [3]: 39%

CCC(C)OC(=O)C(O)CCSC (centres unmarked) [Sec butyl ester of HMB]
Bioavailability [3]: 31%

CSCCC(O)C(=O)OC1CCCCC1 (centres unmarked) [cyclohexyl ester of HMB]
Bioavailability [3]: 20%

CCOC(=O)C(O)CCSC (centres unmarked) [ethyl ester of HMB]
amount remaining after incubation in rumen juices [2]: 3%
Bioavailability [3]: 35%

CSCC[C@H](N)C(=O)O [methionine]
amount remaining after incubation in rumen juices [2]: 34%

CCCCOC(=O)C(O)CCSC (centres unmarked) [n-butyl ester of HMB]
Bioavailability [3]: 17%
